From ChEMBL document CHEMBL5038659, “Discovery of the First Examples of Threonine Tyrosine Kinase PROTAC Degraders” (J Med Chem, 2022)

Experiments:
[1] = molecular target: von Hippel-Lindau disease tumor suppressor/Dual specificity protein kinase TTK (Homo sapiens, UniProt P33981+P40337); experiment: Protac activity at VHL/TTK in human HCT-116 cells assessed as degradation of TTK measured after 6 hrs by Western blotting analysis; format: cell-based
[2] = molecular target: T1, Protein cereblon/Dual specificity protein kinase TTK (Homo sapiens, UniProt P33981+Q96SW2); experiment: Protac activity at CRBN/TTK in human HCT-116 cells assessed as TTK degradation by measuring maximum degradation after 6 hrs by Western blotting analysis relative to control; format: cell-based
Target sequence in this assay (P33981 whole entry, looked up): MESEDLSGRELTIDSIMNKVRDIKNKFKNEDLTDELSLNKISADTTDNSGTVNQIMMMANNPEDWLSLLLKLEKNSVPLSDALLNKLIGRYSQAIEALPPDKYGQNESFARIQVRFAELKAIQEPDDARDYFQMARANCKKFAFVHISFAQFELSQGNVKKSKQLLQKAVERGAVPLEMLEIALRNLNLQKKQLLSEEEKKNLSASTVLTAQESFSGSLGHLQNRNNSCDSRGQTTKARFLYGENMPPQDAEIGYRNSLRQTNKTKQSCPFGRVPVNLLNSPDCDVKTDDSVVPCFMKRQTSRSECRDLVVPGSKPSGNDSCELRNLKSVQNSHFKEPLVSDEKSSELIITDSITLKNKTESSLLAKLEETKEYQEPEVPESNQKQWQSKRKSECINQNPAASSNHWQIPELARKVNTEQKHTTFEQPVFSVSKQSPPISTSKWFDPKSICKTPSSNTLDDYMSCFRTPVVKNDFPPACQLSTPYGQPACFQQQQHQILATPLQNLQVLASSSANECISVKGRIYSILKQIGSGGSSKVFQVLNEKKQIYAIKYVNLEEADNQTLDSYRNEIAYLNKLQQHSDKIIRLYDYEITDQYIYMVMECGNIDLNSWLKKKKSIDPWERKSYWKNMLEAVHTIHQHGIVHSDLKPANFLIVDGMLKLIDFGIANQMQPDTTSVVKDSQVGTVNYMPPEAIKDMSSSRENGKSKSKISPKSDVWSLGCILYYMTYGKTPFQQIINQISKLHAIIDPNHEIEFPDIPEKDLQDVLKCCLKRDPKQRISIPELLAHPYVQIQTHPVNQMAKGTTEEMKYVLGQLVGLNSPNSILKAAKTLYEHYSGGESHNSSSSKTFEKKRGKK
Target sequence in this assay (Q96SW2 whole entry, looked up): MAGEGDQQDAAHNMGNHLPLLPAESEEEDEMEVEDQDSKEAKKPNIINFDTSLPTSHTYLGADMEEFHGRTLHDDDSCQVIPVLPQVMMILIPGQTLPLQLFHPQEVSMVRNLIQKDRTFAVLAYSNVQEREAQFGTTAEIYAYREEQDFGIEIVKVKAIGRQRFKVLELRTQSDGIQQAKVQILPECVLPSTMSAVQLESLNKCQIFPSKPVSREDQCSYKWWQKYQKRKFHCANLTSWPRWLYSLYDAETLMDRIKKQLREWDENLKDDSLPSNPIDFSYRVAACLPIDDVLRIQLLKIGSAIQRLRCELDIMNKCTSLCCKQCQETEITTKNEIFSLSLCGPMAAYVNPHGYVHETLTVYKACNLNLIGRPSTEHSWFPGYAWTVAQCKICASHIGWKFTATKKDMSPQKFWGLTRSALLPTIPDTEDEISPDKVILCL

[3] = molecular target: T1, Protein cereblon/Dual specificity protein kinase TTK; experiment: Protac activity at CRBN/TTK in human COLO 205 cells assessed as degradation of TTK measured after 6 hrs by Western blotting analysis; format: cell-based
Target sequence in this assay (P33981 whole entry): as the sequence (P33981 whole entry, looked up) above
Target sequence in this assay (Q96SW2 whole entry): as the sequence (Q96SW2 whole entry, looked up) above

[4] = molecular target: T1, Protein cereblon/Dual specificity protein kinase TTK; experiment: Protac activity at CRBN/TTK in human HCT-116 cells assessed as degradation of TTK measured after 6 hrs by Western blotting analysis; format: cell-based
Target sequence in this assay (P33981 whole entry): as the sequence (P33981 whole entry, looked up) above
Target sequence in this assay (Q96SW2 whole entry): as the sequence (Q96SW2 whole entry, looked up) above

[5] = molecular target: T1, Protein cereblon/Dual specificity protein kinase TTK; experiment: Protac activity at CRBN/TTK in human COLO 205 cells assessed as TTK degradation by measuring maximum degradation after 6 hrs by Western blotting analysis relative to control; format: cell-based
Target sequence in this assay (P33981 whole entry, looked up): as the sequence (P33981 whole entry, looked up) above
Target sequence in this assay (Q96SW2 whole entry, looked up): as the sequence (Q96SW2 whole entry, looked up) above

COLO 205 = experiment: Antiproliferative against human COLO 205 cells assessed as cell viability after 4 days by CCK-8 assay; format: functional, cell-based; details: COLO 205, 96 h

Sequence of von Hippel-Lindau disease tumor suppressor/Dual specificity protein kinase TTK (P33981 whole entry): as the sequence (P33981 whole entry, looked up) above
Sequence of von Hippel-Lindau disease tumor suppressor/Dual specificity protein kinase TTK (P40337 whole entry): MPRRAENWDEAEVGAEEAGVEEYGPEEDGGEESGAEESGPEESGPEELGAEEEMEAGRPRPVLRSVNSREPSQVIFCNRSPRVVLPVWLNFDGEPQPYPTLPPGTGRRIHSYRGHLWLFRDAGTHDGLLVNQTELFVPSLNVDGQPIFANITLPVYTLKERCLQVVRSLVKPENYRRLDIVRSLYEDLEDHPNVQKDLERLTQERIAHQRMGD

Compound | DC50 [1] [nM] | Emax [2] [%] | DC50 [3] [nM] | DC50 [4] [nM] | Emax [5] [%] | IC50 (COLO 205) [nM]
CCC(=O)N[C@H]1CC[C@@H](n2c(=O)cc(C)c3cnc(Nc4ccc(N5CCN(CCCCCCOCCC(=O)N[C@H](C(=O)N6C[C@H](O)C[C@H]6C(=O)NCc6ccc(-c7scnc7C)cc6)C(C)(C)C)CC5)cc4OC)nc32)CC1 | > 1000 | – | – | – | – | –
CCC(=O)N[C@H]1CC[C@@H](n2c(=O)cc(C)c3cnc(Nc4ccc(N5CCN(CCCCCCCCOCCC(=O)N[C@H](C(=O)N6C[C@H](O)C[C@H]6C(=O)NCc6ccc(-c7scnc7C)cc6)C(C)(C)C)CC5)cc4OC)nc32)CC1 | > 1000 | – | – | – | – | –
CCC(=O)N[C@H]1CC[C@@H](n2c(=O)cc(C)c3cnc(Nc4ccc(N5CCN(C(=O)CCCCCC#Cc6ccc7c(c6)CN(C6CCC(=O)NC6=O)C7=O)CC5)cc4OC)nc32)CC1 (some centres not stated) | – | 61 | 1.5 | 35 | 86 | –
CCC(=O)N[C@H]1CC[C@@H](n2c(=O)cc(C)c3cnc(Nc4ccc(N5CCN(C(=O)CCCCCCCC#Cc6cccc7c6CN(C6CCC(=O)NC6=O)C7=O)CC5)cc4OC)nc32)CC1 (some centres not stated) | – | 53 | 7 | 58.1 | 84 | –
CCC(=O)N[C@H]1CC[C@@H](n2c(=O)cc(C)c3cnc(Nc4ccc(N5CCN(C(=O)CCCCCC#Cc6cccc7c6CN(C6CCC(=O)NC6=O)C7=O)CC5)cc4OC)nc32)CC1 (some centres not stated) | – | 50 | 5 | 20.3 | 76 | –
CCC(=O)N[C@H]1CC[C@@H](n2c(=O)cc(C)c3cnc(Nc4ccc(N5CCN(C(=O)CCCC#Cc6ccc7c(c6)C(=O)N(C6CCC(=O)NC6=O)C7)CC5)cc4OC)nc32)CC1 (some centres not stated) | – | 57 | 3.3 | 25.4 | 77 | –
CCC(=O)N[C@H]1CC[C@@H](n2c(=O)cc(C)c3cnc(Nc4ccc(N5CCN(C(=O)CCCCCCCCCC#Cc6cccc7c6CN(C6CCC(=O)NC6=O)C7=O)CC5)cc4OC)nc32)CC1 (some centres not stated) | – | 66 | 2.2 | 49.6 | 87 | –
CCC(=O)N[C@H]1CC[C@@H](n2c(=O)cc(C)c3cnc(Nc4ccc(N5CCN(CCOCCC(=O)N[C@H](C(=O)N6C[C@H](O)C[C@H]6C(=O)NCc6ccc(-c7scnc7C)cc6)C(C)(C)C)CC5)cc4OC)nc32)CC1 | > 1000 | – | – | – | – | –
CCC(=O)N[C@H]1CC[C@@H](n2c(=O)cc(C)c3cnc(Nc4ccc(N5CCN(C(=O)CCCCCCCCCC#Cc6ccc7c(c6)C(=O)N(C6CCC(=O)NC6=O)C7)CC5)cc4OC)nc32)CC1 (some centres not stated) | – | 66 | 19.1 | 74.5 | 87 | –
CCC(=O)N[C@H]1CC[C@@H](n2c(=O)cc(C)c3cnc(Nc4ccc(N5CCN(C(=O)CCCCCCCCCC#Cc6cccc7c6C(=O)N(C6CCC(=O)NC6=O)C7)CC5)cc4OC)nc32)CC1 (some centres not stated) | – | 13 | 21.7 | > 1000 | 88 | –
CCC(=O)N[C@H]1CC[C@@H](n2c(=O)cc(C)c3cnc(Nc4ccc(N5CCN(C(=O)CCCC#Cc6cccc7c6C(=O)N(C6CCC(=O)NC6=O)C7)CC5)cc4OC)nc32)CC1 (some centres not stated) | – | 28 | 30.3 | > 1000 | 64 | –
CCC(=O)N[C@H]1CC[C@@H](n2c(=O)cc(C)c3cnc(Nc4ccc(N5CCN(C(=O)CCCCCC#Cc6ccc7c(c6)C(=O)N(C6CCC(=O)N(C)C6=O)C7)CC5)cc4OC)nc32)CC1 (some centres not stated) | – | – | – | – | – | 1500
CCC(=O)N[C@H]1CC[C@@H](n2c(=O)cc(C)c3cnc(Nc4ccc(N5CCN(C(=O)CCCCCCCC#Cc6ccc7c(c6)C(=O)N(C6CCC(=O)NC6=O)C7)CC5)cc4OC)nc32)CC1 (some centres not stated) | – | 43 | 7 | 161 | 84 | –
CCC(=O)N[C@H]1CC[C@@H](n2c(=O)cc(C)c3cnc(Nc4ccc(N5CCN(C(=O)CCCC#Cc6ccc7c(c6)CN(C6CCC(=O)N(C)C6=O)C7=O)CC5)cc4OC)nc32)CC1 (some centres not stated) | – | – | – | – | – | 1500
CCC(=O)N[C@H]1CC[C@@H](n2c(=O)cc(C)c3cnc(Nc4ccc(N5CCN(C(=O)CCCCCCCC#Cc6cccc7c6C(=O)N(C6CCC(=O)NC6=O)C7)CC5)cc4OC)nc32)CC1 (some centres not stated) | – | 37 | 46 | 496 | 73 | –
CCC(=O)N[C@H]1CC[C@@H](n2c(=O)cc(C)c3cnc(Nc4ccc(N5CCN(C(=O)CCCCCC#Cc6cccc7c6C(=O)N(C6CCC(=O)NC6=O)C7)CC5)cc4OC)nc32)CC1 (some centres not stated) | – | 41 | 31.3 | > 1000 | 72 | –
CCC(=O)N[C@H]1CC[C@@H](n2c(=O)cc(C)c3cnc(Nc4ccc(N5CCN(C(=O)CCCC#Cc6cccc7c6CN(C6CCC(=O)NC6=O)C7=O)CC5)cc4OC)nc32)CC1 (some centres not stated) | – | 43 | 599 | > 1000 | 28 | –
CCC(=O)N[C@H]1CC[C@@H](n2c(=O)cc(C)c3cnc(Nc4ccc(N5CCN(C(=O)CCCCCCCC#Cc6ccc7c(c6)CN(C6CCC(=O)NC6=O)C7=O)CC5)cc4OC)nc32)CC1 (some centres not stated) | – | 50 | 3 | 663 | 85 | –
CCC(=O)N[C@H]1CC[C@@H](n2c(=O)cc(C)c3cnc(Nc4ccc(N5CCN(C(=O)CCCCCCCCCC#Cc6ccc7c(c6)CN(C6CCC(=O)NC6=O)C7=O)CC5)cc4OC)nc32)CC1 (some centres not stated) | – | 83 | 5.6 | 30.2 | 85 | –
CCC(=O)N[C@H]1CC[C@@H](n2c(=O)cc(C)c3cnc(Nc4ccc(N5CCN(CCCCOCCC(=O)N[C@H](C(=O)N6C[C@H](O)C[C@H]6C(=O)NCc6ccc(-c7scnc7C)cc6)C(C)(C)C)CC5)cc4OC)nc32)CC1 | > 1000 | – | – | – | – | –
